The text below walks through data of ChEMBL document CHEMBL5465560, “Selectivity Literature for EUbOPEN Chemogenomic Library” (2024).

Assay [1] addresses G protein-coupled receptor kinase 6 (Homo sapiens) (UniProt P43250). In words: Selectivity interaction (ActivX KiNativ screen (ex vivo kinase selectivity in human PBMCs)) EUB0001619a GRK6. The settings on record: PBMC, at 1 µM. It is filed as cell-based.
Assay [2] addresses Epithelial discoidin domain-containing receptor 1 (Homo sapiens) (UniProt Q08345). Kind of assay: Selectivity interaction (KinomeScan (DiscoverX)) EUB0000607a DDR1. The settings on record: at 10 µM.
For assay [3], the target named is Tyrosine-protein kinase ABL2 (Homo sapiens, UniProt P42684). The settings on record: at 10 µM.
Tyrosine-protein kinase ABL2, sequence (P42684 whole entry): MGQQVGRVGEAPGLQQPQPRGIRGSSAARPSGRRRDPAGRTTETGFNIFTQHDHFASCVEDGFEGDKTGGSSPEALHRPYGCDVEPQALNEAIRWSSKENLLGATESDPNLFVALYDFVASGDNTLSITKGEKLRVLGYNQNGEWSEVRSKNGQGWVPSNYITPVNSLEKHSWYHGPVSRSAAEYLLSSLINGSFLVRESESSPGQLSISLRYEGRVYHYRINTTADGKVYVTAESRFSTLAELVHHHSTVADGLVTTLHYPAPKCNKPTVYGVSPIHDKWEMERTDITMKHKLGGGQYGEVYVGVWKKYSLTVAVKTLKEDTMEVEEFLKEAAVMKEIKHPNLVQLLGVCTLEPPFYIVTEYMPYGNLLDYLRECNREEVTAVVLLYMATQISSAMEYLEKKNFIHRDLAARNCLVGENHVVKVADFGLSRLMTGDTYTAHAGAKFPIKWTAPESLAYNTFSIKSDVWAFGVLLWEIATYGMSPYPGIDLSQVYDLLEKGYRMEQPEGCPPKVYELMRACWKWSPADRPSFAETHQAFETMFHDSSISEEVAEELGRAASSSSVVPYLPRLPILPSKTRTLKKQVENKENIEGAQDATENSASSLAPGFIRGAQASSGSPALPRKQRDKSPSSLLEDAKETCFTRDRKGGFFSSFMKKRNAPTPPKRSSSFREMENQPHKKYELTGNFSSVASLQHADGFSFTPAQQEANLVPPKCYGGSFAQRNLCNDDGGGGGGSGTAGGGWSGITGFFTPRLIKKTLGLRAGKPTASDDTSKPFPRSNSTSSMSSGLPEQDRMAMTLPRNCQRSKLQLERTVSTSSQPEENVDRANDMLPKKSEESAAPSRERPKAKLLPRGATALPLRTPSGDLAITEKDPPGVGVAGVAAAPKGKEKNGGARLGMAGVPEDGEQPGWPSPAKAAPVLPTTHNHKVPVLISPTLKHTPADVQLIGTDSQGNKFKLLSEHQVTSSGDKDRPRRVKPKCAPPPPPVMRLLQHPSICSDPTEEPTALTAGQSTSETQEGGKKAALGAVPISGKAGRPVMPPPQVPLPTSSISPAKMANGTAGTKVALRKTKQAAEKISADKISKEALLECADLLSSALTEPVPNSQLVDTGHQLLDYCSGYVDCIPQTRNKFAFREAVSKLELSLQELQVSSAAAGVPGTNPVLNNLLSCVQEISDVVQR
The target in assay [4] is Wee1-like protein kinase 2 (Homo sapiens) (UniProt P0C1S8). The settings on record: at 10 µM.
Wee1-like protein kinase 2 (Homo sapiens), sequence (P0C1S8 whole entry, looked up): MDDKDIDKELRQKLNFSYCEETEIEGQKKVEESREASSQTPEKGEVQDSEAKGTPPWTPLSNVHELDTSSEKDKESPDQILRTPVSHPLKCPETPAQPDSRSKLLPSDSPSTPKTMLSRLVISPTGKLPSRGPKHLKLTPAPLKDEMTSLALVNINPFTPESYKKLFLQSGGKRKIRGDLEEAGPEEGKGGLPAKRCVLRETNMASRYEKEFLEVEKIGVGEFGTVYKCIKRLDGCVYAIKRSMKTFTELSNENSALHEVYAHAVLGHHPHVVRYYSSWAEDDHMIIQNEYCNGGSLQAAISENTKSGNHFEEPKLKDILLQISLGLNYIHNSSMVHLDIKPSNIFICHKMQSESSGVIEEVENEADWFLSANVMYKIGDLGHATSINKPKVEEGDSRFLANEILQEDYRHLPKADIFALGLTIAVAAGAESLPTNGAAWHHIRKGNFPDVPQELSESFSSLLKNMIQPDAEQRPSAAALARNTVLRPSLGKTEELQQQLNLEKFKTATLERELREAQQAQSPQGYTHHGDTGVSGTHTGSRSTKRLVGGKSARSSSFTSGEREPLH
The target in assay [5] is T1, RAC-alpha serine/threonine-protein kinase (Homo sapiens, UniProt P31749). Kind of assay: Selectivity interaction (ActivX KiNativ screen (kinase selectivity in THP-1 cell lysates)) EUB0000639a AKT1. It is filed as subcellular. The settings on record: lysate.
T1 sequence (P31749 whole entry): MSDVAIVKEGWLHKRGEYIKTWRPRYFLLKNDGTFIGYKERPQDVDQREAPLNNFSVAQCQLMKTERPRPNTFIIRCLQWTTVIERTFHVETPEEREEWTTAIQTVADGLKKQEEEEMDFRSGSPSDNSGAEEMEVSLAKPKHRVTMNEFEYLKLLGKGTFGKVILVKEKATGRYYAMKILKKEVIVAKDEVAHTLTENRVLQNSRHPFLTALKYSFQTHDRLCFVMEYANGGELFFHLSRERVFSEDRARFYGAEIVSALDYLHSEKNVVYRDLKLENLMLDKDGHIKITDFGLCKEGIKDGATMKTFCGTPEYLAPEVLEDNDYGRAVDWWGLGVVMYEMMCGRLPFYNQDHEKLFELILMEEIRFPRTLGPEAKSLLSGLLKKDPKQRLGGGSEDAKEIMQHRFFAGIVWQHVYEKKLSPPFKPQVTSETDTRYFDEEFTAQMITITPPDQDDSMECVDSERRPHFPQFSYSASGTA
Assay [6] deals with Mitogen-activated protein kinase kinase kinase kinase 5 (Homo sapiens) (UniProt Q9Y4K4). Kind of assay: Selectivity interaction (KinomeScan (DiscoverX)) EUB0000092b MAP4K5. The settings on record: at 10 µM.
Mitogen-activated protein kinase kinase kinase kinase 5 (Homo sapiens), sequence (Q9Y4K4 whole entry, looked up): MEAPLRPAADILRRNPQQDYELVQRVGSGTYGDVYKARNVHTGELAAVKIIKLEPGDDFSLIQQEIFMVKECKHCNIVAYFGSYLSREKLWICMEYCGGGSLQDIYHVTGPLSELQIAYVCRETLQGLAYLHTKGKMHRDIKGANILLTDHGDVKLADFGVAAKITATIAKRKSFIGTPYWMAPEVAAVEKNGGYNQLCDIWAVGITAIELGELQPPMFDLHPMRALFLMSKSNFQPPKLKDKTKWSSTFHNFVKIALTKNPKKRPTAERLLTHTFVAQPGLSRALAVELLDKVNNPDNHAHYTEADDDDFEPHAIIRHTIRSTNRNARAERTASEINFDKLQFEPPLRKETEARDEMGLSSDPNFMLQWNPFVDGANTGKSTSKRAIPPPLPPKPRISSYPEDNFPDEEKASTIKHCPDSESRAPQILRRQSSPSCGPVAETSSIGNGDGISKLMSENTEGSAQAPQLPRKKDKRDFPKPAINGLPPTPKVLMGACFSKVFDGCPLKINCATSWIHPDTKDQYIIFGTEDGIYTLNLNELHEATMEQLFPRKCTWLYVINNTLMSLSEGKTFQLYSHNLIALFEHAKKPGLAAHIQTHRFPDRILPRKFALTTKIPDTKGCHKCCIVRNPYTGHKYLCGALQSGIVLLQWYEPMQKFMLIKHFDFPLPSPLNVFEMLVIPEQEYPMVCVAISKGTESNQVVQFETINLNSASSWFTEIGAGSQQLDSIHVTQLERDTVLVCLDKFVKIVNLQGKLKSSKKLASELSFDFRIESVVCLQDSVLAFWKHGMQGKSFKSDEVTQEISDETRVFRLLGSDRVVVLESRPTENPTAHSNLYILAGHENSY
Assay [7] deals with Bone morphogenetic protein receptor type-1A (Homo sapiens, UniProt P36894). Kind of assay: Selectivity interaction (KinomeScan (DiscoverX)) EUB0000092b BMPR1A. The settings on record: at 10 µM.
Bone morphogenetic protein receptor type-1A, sequence (P36894 whole entry): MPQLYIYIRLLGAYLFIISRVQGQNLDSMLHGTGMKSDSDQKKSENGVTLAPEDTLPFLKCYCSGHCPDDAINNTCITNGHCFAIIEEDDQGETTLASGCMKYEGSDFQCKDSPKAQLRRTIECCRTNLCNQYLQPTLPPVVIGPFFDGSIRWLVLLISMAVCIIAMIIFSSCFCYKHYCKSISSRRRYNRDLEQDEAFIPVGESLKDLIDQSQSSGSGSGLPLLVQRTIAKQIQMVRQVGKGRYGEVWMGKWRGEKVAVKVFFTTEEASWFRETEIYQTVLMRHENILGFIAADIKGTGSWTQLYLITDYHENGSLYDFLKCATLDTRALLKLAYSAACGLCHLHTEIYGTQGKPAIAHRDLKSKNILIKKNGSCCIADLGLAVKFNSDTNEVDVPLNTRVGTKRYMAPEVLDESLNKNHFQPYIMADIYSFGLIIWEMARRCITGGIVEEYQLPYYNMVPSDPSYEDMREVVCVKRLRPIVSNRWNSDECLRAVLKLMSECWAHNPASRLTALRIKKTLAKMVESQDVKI
Assay [8] has as its target T1, RAC-alpha serine/threonine-protein kinase. Kind of assay: Selectivity interaction (KinomeScan (DiscoverX)) EUB0000092b AKT1. The settings on record: at 10 µM.
The target in assay [9] is Ephrin type-A receptor 7 (Homo sapiens) (UniProt Q15375). Kind of assay: Selectivity interaction (Kinase panel (DSF assay)) EUB0001558a EPHA7.
Assay [10] addresses 5-hydroxytryptamine receptor 5A (Homo sapiens) (UniProt P47898). Kind of assay: Selectivity interaction (GPCR panel (PDSP screen)) EUB0001079a HTR5A. The settings on record: at 10 µM.
The target in assay [11] is T2, Ephrin type-A receptor 8 (Homo sapiens) (UniProt P29322).
T2 sequence (whole entry): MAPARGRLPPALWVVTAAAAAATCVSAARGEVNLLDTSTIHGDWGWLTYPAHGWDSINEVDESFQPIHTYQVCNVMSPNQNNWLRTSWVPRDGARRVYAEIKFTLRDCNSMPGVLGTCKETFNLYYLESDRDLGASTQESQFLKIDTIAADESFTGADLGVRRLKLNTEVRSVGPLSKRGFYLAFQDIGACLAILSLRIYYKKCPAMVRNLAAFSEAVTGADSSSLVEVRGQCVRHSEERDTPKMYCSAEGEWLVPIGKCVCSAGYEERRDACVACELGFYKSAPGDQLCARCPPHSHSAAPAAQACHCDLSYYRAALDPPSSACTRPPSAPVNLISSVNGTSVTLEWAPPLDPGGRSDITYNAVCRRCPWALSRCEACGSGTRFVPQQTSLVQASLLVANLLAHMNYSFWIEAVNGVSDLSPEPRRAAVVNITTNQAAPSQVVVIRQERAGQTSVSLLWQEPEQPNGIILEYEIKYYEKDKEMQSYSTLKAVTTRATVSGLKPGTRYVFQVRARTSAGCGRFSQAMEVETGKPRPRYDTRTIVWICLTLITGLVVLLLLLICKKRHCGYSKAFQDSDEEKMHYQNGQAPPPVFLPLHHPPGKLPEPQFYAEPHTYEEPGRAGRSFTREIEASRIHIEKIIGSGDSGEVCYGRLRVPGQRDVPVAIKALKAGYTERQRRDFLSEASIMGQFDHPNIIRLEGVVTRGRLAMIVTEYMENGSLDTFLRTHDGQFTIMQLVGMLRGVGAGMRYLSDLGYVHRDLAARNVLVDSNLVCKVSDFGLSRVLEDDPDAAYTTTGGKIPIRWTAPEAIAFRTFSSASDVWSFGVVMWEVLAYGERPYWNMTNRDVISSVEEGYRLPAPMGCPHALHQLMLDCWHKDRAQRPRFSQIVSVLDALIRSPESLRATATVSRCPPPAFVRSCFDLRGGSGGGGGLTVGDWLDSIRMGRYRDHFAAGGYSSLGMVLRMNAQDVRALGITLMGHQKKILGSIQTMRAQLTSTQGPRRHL
In words: Selectivity interaction (KinomeScan (DiscoverX)) EUB0001079a EPHA8. The settings on record: at 1 µM.

Assay [12] addresses T3, 3-phosphoinositide-dependent protein kinase 1 (Homo sapiens) (UniProt O15530).
T3 sequence (whole entry): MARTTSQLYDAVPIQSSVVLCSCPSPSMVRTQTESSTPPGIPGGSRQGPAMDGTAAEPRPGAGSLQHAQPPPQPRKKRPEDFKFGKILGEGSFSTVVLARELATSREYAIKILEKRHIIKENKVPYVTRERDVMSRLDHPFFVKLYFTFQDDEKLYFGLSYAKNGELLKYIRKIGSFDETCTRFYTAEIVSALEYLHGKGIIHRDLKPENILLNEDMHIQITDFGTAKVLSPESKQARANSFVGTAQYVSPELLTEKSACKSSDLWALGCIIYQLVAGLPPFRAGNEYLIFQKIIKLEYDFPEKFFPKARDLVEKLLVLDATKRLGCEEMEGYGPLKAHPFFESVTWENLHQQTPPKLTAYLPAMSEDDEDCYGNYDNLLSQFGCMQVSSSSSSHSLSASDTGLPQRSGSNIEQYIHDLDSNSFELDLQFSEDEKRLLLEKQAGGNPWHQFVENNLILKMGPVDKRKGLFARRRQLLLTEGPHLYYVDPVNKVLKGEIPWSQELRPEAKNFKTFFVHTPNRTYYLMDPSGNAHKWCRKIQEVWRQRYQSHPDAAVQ
In words: Selectivity interaction (KinomeScan (DiscoverX)) EUB0001079a PDPK1. The settings on record: at 1 µM.

Assay [13] addresses Serine/threonine-protein kinase PRP4 homolog (Homo sapiens) (UniProt Q13523). In words: Selectivity interaction (KinomeScan (DiscoverX)) EUB0001079a PRPF4B. The settings on record: at 1 µM.
Assay [14] deals with Cyclin-G-associated kinase (Homo sapiens, UniProt O14976). Kind of assay: Selectivity interaction (Competition-binding assay (DiscoverX)) EUB0000229b GAK.
Assay [15] deals with T4, Phosphorylase b kinase gamma catalytic chain, liver/testis isoform (Homo sapiens) (UniProt P15735).
T4 sequence (whole entry): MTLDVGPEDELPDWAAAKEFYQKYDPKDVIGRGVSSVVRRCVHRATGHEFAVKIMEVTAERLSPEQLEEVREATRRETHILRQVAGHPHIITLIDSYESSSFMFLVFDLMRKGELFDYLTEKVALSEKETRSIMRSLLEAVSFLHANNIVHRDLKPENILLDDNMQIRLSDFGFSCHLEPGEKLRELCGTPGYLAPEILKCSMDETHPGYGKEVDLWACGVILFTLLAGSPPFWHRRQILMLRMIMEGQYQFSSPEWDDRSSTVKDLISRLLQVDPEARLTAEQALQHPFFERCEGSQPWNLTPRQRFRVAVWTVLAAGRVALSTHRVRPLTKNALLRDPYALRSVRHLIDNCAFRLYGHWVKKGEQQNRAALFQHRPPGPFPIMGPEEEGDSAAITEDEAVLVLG
In words: Selectivity interaction (KinomeScan (DiscoverX)) EUB0000229b PHKG2. The settings on record: at 10 µM.

G protein-coupled receptor kinase 6 (Homo sapiens), sequence (P43250 whole entry, looked up, the tested form may be a part): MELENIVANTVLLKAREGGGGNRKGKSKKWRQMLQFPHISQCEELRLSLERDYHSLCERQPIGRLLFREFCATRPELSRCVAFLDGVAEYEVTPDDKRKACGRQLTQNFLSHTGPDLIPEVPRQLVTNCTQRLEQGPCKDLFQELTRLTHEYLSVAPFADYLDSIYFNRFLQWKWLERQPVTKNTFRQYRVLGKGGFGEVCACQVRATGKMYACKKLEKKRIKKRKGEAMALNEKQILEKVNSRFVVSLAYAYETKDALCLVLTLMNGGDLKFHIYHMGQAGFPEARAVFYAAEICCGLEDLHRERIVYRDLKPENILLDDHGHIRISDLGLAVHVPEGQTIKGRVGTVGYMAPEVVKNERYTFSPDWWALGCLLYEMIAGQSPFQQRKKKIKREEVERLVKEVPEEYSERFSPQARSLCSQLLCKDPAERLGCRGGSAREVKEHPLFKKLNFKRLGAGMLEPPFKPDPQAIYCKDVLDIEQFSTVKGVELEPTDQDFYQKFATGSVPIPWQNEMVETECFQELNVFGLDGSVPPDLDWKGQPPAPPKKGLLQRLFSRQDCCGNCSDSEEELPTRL
5-hydroxytryptamine receptor 5A (Homo sapiens), sequence (P47898 whole entry): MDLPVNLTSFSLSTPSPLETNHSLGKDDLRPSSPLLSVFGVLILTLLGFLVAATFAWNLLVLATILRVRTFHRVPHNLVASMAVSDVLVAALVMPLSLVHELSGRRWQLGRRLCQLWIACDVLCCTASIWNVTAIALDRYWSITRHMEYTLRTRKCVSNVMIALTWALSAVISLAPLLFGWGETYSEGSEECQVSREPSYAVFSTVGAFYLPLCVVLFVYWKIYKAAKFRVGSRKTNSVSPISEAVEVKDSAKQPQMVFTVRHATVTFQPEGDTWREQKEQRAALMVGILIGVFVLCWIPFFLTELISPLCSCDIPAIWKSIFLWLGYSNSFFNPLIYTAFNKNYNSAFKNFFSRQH

With `N#Cc1cccc(-c2c[nH]c3ncnc(N4CCOCC4)c23)c1`, the % of inhibition in assay [1] came to 11%.
The compound `CNC(=O)Nc1ccc(-c2nc(N3CC4CCC(C3)O4)c3cnn(C4CCC5(CC4)OCCO5)c3n2)cc1` yielded a % of control in assay [2] of 66%.
Regarding `Cc1cc([C@@H](C)Nc2ccccc2C(=O)O)c2nc(N3CCOCC3)cc(=O)n2c1` [AZD-6482], the % of control in assay [3] was 95%; in assay [4], 100%.
Turning to `CC[C@@H]1[C@H](F)C(=O)N[C@@H]1COc1nccc2cc(C(N)=O)c(OC)cc12` [ZIMLOVISERTIB], the % of inhibition in [5] (at 0.01 µM) is -4.8%; in assay [5] (at 0.04 µM), 7.5%; in [5] (at 0.2 µM), 11.8%; in [5] (at 1 µM) it was 9.4%; in assay [5] (at 5 µM) it was 7.6%.
For `CCC(=O)N1CCN(c2ccc(-n3c(=O)ccc4cnc5ccc(-c6cnc7ccccc7c6)cc5c43)cc2C(F)(F)F)CC1`, the % of control is 8.1% in assay [6], 45% in assay [7] and 91% in assay [8].
With `CC(C)(O)[C@H](F)CN1Cc2cc(NC(=O)c3cnn4cccnc34)c(N3CCOCC3)cc2C1=O`, the dTM in assay [9] was -0.2 K.
For the compound `Nc1cnc(N2CCc3cc(S(=O)(=O)Nc4c(F)cc(Cl)cc4F)cc(N4CCCC4=O)c32)nc1` [TP-020n], in assay [10], the % of inhibition was -4.87%. Besides, the % of control in assay [11] was determined as 100%; in assay [12], 98%; in assay [13] it was 76%.
One may read the Kd as the concentration at which binding is half-saturated. The low end stands for tighter binding, the high end for weaker binding. As to `COc1cc(N(C)c2ccnc3ccc(C(F)(F)F)cc23)cc(OC)c1OC`, binding in assay [14] was put at a Kd of 7.1 µM. Besides, the % binding in [15] is 85%.
